Measurements: PMC7395068, “The evolution of strategies to minimise the risk of human drug-induced liver injury (DILI) in drug discovery and development” (Archives of Toxicology, 2020)
Read-outs that look alike come from different tables or passages of the source.

Key:
[1] = read-out: Human plasma Cmax; total plasma Cmax.tot, median of 9 literature references; cited from earlier work
[2] = system: isolated mouse liver mitochondria; conditions: In vitro Assay; ref Porceddu 2012; cited from earlier work
HepG2 cells [3] = conditions: cited from earlier work
human hepatocytes = conditions: cited from earlier work
[4] = system: HepG2 C3A spheroid, BSEP, Glu/Gal in HepG2 cells, bioactivation; conditions: cited from earlier work
[5] = system: THLE or HepG2 cells, isolated mitochondria, BSEP; conditions: cited from earlier work
[6] = system: HepG2 cells, primary human hepatocytes; conditions: In vitro Assay; ref Garside 2014; cited from earlier work
hLiMTs [7] = assay: Combined HCI (HCS) and cellular ATP 3D assay in hLiMTs; conditions: for AC50 / minimal effective concentration: Homo sapiens
hLiMTs [8] = conditions: cited from earlier work
[9] = cited from earlier work
PHH spheroids = conditions: In vitro Assay; ref Vorrink 2018; cited from earlier work
[10] = system: THLE-Null and THLE-3A4 cells; conditions: In vitro Assay; ref Gustafsson 2014; cited from earlier work
[11] = system: primary human hepatocytes, NIH3T3 fibroblasts, BSEP, CYP3A4; conditions: cited from earlier work
PHH [12] = conditions: In vitro Assay; ref Albrecht 2019; cited from earlier work
HepG2 cells [13] = conditions: cited from earlier work; remark: listed apart in the source
[14] = Plasma free fraction (fu) and unbound Cmax (Cmax,u); format: in vitro ADME, human; conditions: unbound plasma Cmax
[15] = cited from earlier work; remark: listed apart in the source
PHH [16] = conditions: cited from earlier work
rBsep = conditions: In vitro Assay; ref Dawson 2012; cited from earlier work
HepG2 = system: HepG2; set-up: method as in Albrecht 2019; conditions: In vitro Assay; ref Albrecht 2019; cited from earlier work
[17] = plasma free fraction; cited from earlier work
HepaRG spheroids = assay: Combined HCI (HCS) and cellular ATP 3D assay in HepaRG spheroids; conditions: for AC50 / minimal effective concentration: Homo sapiens
[18] = In vitro Assay, ref Persson 2013
[19] = Modeled in vitro assays (cytotoxicity, mitochondrial dysfunction, BSEP), ref Aleo et al. 2019
[20] = Microtissue model structural based (HCI), combined HCS and ATP, MEC < 25 × Cmax.tot cut-off
[21] = In vitro Assay, ref Proctor 2017
[22] = In vitro Assay, ref Schadt 2015

- hLiMTs <25x Avg Cmax ATP (hLiMTs [7]; hLiMTs, ATP endpoint, cut-off <25x Avg Cmax): +ve
- hLiMTs <100x Avg Cmaxu ATP (hLiMTs [7]; hLiMTs, ATP endpoint, cut-off <100x Avg Cmaxu): -ve
- hLiMTs <25x Avg Cmax HCS (hLiMTs [7]; hLiMTs, HCS endpoints, cut-off <25x Avg Cmax): +ve
- hLiMTs <100x Avg Cmaxu HCS (hLiMTs [7]; hLiMTs, HCS endpoints, cut-off <100x Avg Cmaxu): -ve
- hLiMTs <25x Avg Cmax All (hLiMTs [7]; hLiMTs, all endpoints (ATP and HCS), cut-off <25x Avg Cmax): +ve
- hLiMTs Cmax max All (hLiMTs [7]; hLiMTs, all endpoints, Cmax max used): +ve
- hLiMTs Cmax min All (hLiMTs [7]; hLiMTs, all endpoints, Cmax min used): +ve
- hLiMTs <10 uM All (hLiMTs [7]; hLiMTs, all endpoints, cut-off <10 uM): -ve
- hLiMTs <100x Avg Cmaxu All (hLiMTs [7]; hLiMTs, all endpoints, cut-off <100x Avg Cmaxu): -ve
- Human plasma Cmax,u [14]: 0.064 µM
- HepaRG <25x Avg Cmax ATP (HepaRG spheroids; HepaRG, ATP endpoint, cut-off <25x Avg Cmax): +ve
- HepaRG <100x Avg Cmaxu ATP (HepaRG spheroids; HepaRG, ATP endpoint, cut-off <100x Avg Cmaxu): -ve
- HepaRG <25x Avg Cmax HCS (HepaRG spheroids; HepaRG, HCS endpoints, cut-off <25x Avg Cmax): +ve
- HepaRG <100x Avg Cmaxu HCS (HepaRG spheroids; HepaRG, HCS endpoints, cut-off <100x Avg Cmaxu): -ve
- HepaRG <25x Avg Cmax All (HepaRG spheroids; HepaRG, all endpoints (ATP and HCS), cut-off <25x Avg Cmax): +ve
- HepaRG Cmax max All (HepaRG spheroids; HepaRG, all endpoints, Cmax max used): +ve
- HepaRG Cmax min All (HepaRG spheroids; HepaRG, all endpoints, Cmax min used): +ve
- HepaRG <10 uM All (HepaRG spheroids; HepaRG, all endpoints, cut-off <10 uM): -ve
- HepaRG <100x Avg Cmaxu All (HepaRG spheroids; HepaRG, all endpoints, cut-off <100x Avg Cmaxu): -ve
SMILES: Cc1c(C)c2c(c(C)c1O)CCC(C)(COc1ccc(CC3SC(=O)NC3=O)cc1)O2 (stereo not drawn) [troglitazone, reference compound]
- Cmax [1]: 6.39 µM
- in vitro data EC2<=1x Cmax [2]: +VE
- in vitro data EC20<=2uM [2]: +VE
- Cluser analysis (HepG2 cells [3]; [18]): +VE
- Structural based (HCI) (HepG2 cells [3]; [18]): +VE
- DILI in vitro assay prediction, Persson (2013) (HepG2 cells [3]; Structural based (HCI), HepG2, ref Persson et al. 2013): +VE
- Structural based (HCI) (human hepatocytes; In vitro Assay, ref Xu 2008): +VE
- DILI in vitro assay prediction, Xu (2008) (human hepatocytes; Structural based (HCI), human hepatocytes, ref Xu et al. 2008): +VE
- Bayesian Machine Learning DILI prediction, Williams (2019) ([4]; Bayesian modeling, ref Williams et al. 2019): +VE
- Bayesian Machine Learning ([4]; In vitro Assay, ref Williams 2019): +VE
- Partition Hybrid HRM Score ([5]; In vitro Assay, ref Aleo 2019): +VE
- Ro2 Hybrid HRM Score ([5]; In vitro Assay, ref Aleo 2019): +VE
- Partition Hybrid HRM Score ≥4, Aleo (2019) [5, 19]: +VE (Partition Hybrid HRM Score ≥4)
- Partition Hybrid HRM Score ≥8, Aleo (2019) [5, 19]: +VE (Partition Hybrid HRM Score ≥8)
- Rule of Two hybrid HRM Score ≥3, Aleo (2019) [5, 19]: +VE (Rule of Two hybrid HRM Score ≥3)
- Rule of Two hybrid HRM Score ≥8, Aleo (2019) [5, 19]: +VE (Rule of Two hybrid HRM Score ≥8)
- Cluster 1-6 +VE Assay [6]: +VE
- AC50 (hLiMTs [7]; read-out: ATP endpoint AC50): 89.5 µM
- minimal effective concentration (hLiMTs [7]; read-out: ATP endpoint MEC): 74 µM
- AC50 (hLiMTs [7]; read-out: HCS endpoint AC50): 73.6 µM
- minimal effective concentration (hLiMTs [7]; read-out: HCS endpoint MEC): 67.6 µM
- DILI prediction hLiMTs (HCS-MEC) (hLiMTs [7]; [20]): +VE (MEC < 25 × Cmax.tot cut-off)
- hLiMTs ATP <100uM (hLiMTs [8]; [21]): +VE (IC50 threshold of 100 µM)
- hLiMTs/100xCmax, Proctor (2017) (hLiMTs [8]; hLiMTs, ATP, IC50 < 100 × Cmax.tot, ref Proctor et al. 2017): +VE (IC50 < 100 × Cmax.tot)
- hLiMTs/100uM, Proctor (2017) (hLiMTs [8]; hLiMTs, ATP, IC50 threshold 100 µM, ref Proctor et al. 2017): +VE (IC50 threshold of 100 µM)
- DILI severity category (Chen et al. [2016]) ([9]; LTKB DILIrank category, ref Chen et al. 2016): Most
- DILI severity category (Chen 2016) ([9]; human DILI classification, LTKB DILIrank, ref Chen et al. 2016): Most
- DILI severity category ([9]; human DILI severity, ref Chen et al.): Most
- DILI +VE (5-8), DILI -VE (-4) ([9]; ref Chen 2016): +VE
- DILI severity category ([9]; ref Chen 2016): vMost-DILI-Concern
- hLiMTs ATP <20 x Cmax (PHH spheroids): +VE (IC20 < 20 × Cmax.tot cut-off)
- THLE-Null [10]: +VE
- THLE-Null/3A4 [10]: -VE
- DILI in vitro assay prediction, Schadt (2015) ([11]; BSEP & Metabolism based, ref Schadt et al. 2015): +VE
- Cellular toxicity (3T3 cells) [11, 22]: +VE
- Combined Assay [11, 22]: +VE
- GSH adduct HML [11, 22]: +VE
- Hepatocyte cellular toxicity [11, 22]: +VE
- MitoTox 3T3 [11, 22]: -VE
- TDI CYP3A4 [11, 22]: +VE
- hBSEP inhibition [11, 22]: +VE
- Cytotoxicity PHH 48 hrs (PHH [12]): +VE
- Structural based (HCI) (HepG2 cells [13]; In vitro Assay, ref Tolosa 2012): +VE
- DILI in vitro assay prediction, Tolosa (2012) (HepG2 cells [13]; Structural based (HCI), HepG2, ref Tolosa et al. 2012): +VE
- Assigned DILI category ([15]; Chen et al. 2016 or literature alignment, ref Chen et al. 2016): 3
- In vivo DILI ([15]; […]): +VE
- In vivo DILI ([15]; ref Albrecht 2019): +VE
- In vivo DILI ([15]; ref Aleo 2019): +VE
- In vivo DILI ([15]; ref Dawson 2012): +VE
- In vivo DILI ([15]; ref Garside 2014): +VE
- In vivo DILI ([15]; ref Gustafsson 2014): +VE
- In vivo DILI ([15]; ref Persson 2013): +VE
- In vivo DILI ([15]; ref Porceddu 2012): +VE
- In vivo DILI ([15]; ref Proctor 2017): +VE
- In vivo DILI ([15]; ref Schadt 2015): +VE
- In vivo DILI ([15]; ref Tolosa 2012): +VE
- In vivo DILI ([15]; ref Vorrink 2018): +VE
- In vivo DILI ([15]; ref Williams 2019): +VE
- In vivo DILI ([15]; ref Xu 2008): +VE
- PHH/100xCmax, Proctor (2017) (PHH [16]; 2D PHH, ATP, IC50 < 100 × Cmax.tot, ref Proctor et al. 2017): -VE
- PHH/100uM, Proctor (2017) (PHH [16]; 2D PHH, ATP, IC50 threshold 100 µM, ref Proctor et al. 2017): -VE
- PHH ATP <100uM (PHH [16]; [21]): -VE
- Inhibition of rBsep cutoff<1& cmax u>.2 (rBsep): +VE
- Inhibition of rBsep cutoff<3 (rBsep): +VE
- Cytotoxicity HepG2 48 hrs (HepG2): +VE
- fu [17]: 0.010
- AC50 (HepaRG spheroids; HepaRG, read-out: ATP endpoint AC50): 28.8 µM
- minimal effective concentration (HepaRG spheroids; HepaRG, read-out: ATP endpoint MEC): 25 µM
- AC50 (HepaRG spheroids; HepaRG, read-out: HCS endpoint AC50): 33 µM
- minimal effective concentration (HepaRG spheroids; HepaRG, read-out: HCS endpoint MEC): 22 µM
- DILI prediction HepaRG spheroids (HCS-MEC) (HepaRG spheroids; [20]): +VE (MEC < 25 × Cmax.tot cut-off)
